The nature of data set [1]: Investigation of plasma stability (Tam-labeled peptides, RP-HPLC). It counts as in vitro ADME. Particulars: Tam-modified peptides, 10^−5 M in human blood plasma, 37 °C; one-phase decay.
Method: Investigation of peptide stability in blood plasma was carried out as described previously [22]. Tam-labeled peptides were dissolved in human blood plasma at a concentration of 10^−5 M and incubated at 37 °C and 250 rpm. Samples taken at the respective time points were added to a solution of 0.1% SDS in ACN/EtOH (1:1). After incubation at −20 °C for 20 min, the supernatant was transferred to a new tube and incubated again at −20 °C for at least 3 h. […] Peaks were integrated, and the peak containing the intact peptide was normalized to the sample taken at t = 0 min (100%). Plasma half-life was determined using one-phase decay in Prism 5 (GraphPad, San Diego, CA, USA).
The subject of data set [2] is HEK293 cells transiently transfected with CMKLR1-eYFP. Nature of the data set: Live cell fluorescence microscopy of peptide uptake. It counts as cell-based. Particulars: 1 µM Tam-labeled peptide, 60 min. As for the experimental part:
For fluorescence microscopy, HEK293 cells were seeded into Ibidi 15 µ-slides (140,000 cells/200 µL/well) coated with poly D-lysine and grown overnight. Next, cells were transfected with 900 ng CMKLR1-eYFP. Transfection was achieved using Lipofectamine 2000 according to the manufacturer’s protocol. One day post-transfection, fluorescence microscopy experiments were performed on an AxioVision Observer.Z1 microscope equipped with an ApoTome imaging system (Zeiss, Jena, Germany). […] To observe peptide uptake, cells were stimulated with 1 µM Tam-chemerin-9 in OptiMEM, which was replaced with acidic wash (50 mM glycine, 100 mM NaCl, pH 3) in HBSS after the indicated time, followed by two washing steps with OptiMEM. Microscopy was carried out in OptiMEM.

For data set [3], the system named is HEK293 cells stably transfected with CMKLR1-eYFP. Nature of the data set: Quantification of peptide uptake using a High Content Imager. It is filed as cell-based. The note with it: 1 µM Tam-labeled peptide, up to 1 h. As for the experimental part:
Cells were stimulated with 1 µM of the respective, Tam-labeled peptide for the specified periods, followed by washing with acidic wash (50 mM glycine, 100 mM NaCl, pH 3) in HBSS. Microscopy was carried out in OptiMEM using an ImageXpress Micro Confocal High-Content Imaging System (Molecular Devices, San José, CA, USA), using the appropriate filters for the respective fluorophores (Table 1). The fluorescence intensity per cell was automatically analyzed for each well by a module detecting the nuclei (5–30 µm in diameter and 100 gray levels above background) and the granules by Tam-peptide fluorescence (2–5 µm in diameter, 70 gray levels above background).

The test system is the same in data set [4]. Nature of the data set: Resazurin-based cell viability assay, HEK293-CMKLR1. Particulars: Homo sapiens; HEK293-CMKLR1, 72 h; read-out: IC50 (toxicity). As for the experimental part: (§1) HEK293 cells stably transfected with CMKLR1-eYFP, empty HEK293 cells (15,000 cells in 100 µL suspension/well), or HMEC-1 cells (5000 cells in 100 µL suspension/well) in their respective cell culture media were seeded in 96 well plates (coated with poly D-lysine for HEK cells) and incubated at standard conditions overnight. Afterward, cells were incubated with peptides or MTX dissolved in cell culture media, and a medium without peptides was used as a control. […] Ethanol or media was removed and a 50 µL resazurin-based in vitro toxicology assay kit (Sigma-Aldrich, St. Lous, MO, USA) in cell culture media (1:10) was added to each well. After 1 h incubation time, the conversion of the resazurin was detected by measuring the fluorescence intensity at λem = 590 nm. All experiments were performed in duplicates and each experiment was repeated at least three times. Nonlinear regression was calculated using GraphPad Prism 5, curves were normalized to untreated and ethanol-treated cells.
Background: Alamar Blue is a resazurin reagent that responds to reducing activity.

For data set [5], the system named is untransfected HEK293 cells. Nature of the data set: Resazurin-based cell viability assay, untransfected HEK293. The note with it: Homo sapiens; HEK293 cells devoid of CMKLR1, 72 h; read-out: IC50 (toxicity). As for the experimental part:
as §1

Another data set has as its system HMEC-1 cells. The data set is described as follows: Resazurin-based cell viability assay, HMEC-1. Particulars: Homo sapiens; HMEC-1 cells endogenously expressing CMKLR1, 72 h; read-out: IC50 (toxicity). As for the experimental part: as §1

Molecules are shown by their SMILES. Where a SMILES comes first, the peptide text is derived from it. Bridges are numbered along the chain shown (N, C = ends). [ ]: non-standard residue; d: D form. The star is where a group is joined. X1 = CN(C)c1ccc2c(c1)Oc1cc(N(C)C)ccc1C21OC(=O)c2ccc(C(=O)*)cc21; PEG4 = NCCOCCOCCOCCOCCC(=O)O; d(hCys) = N[C@H](CCS)C(=O)O

For `C[C@@H]1NC(=O)[C@H](Cc2ccccc2)NC(=O)[C@H](CCC(N)=O)NC(=O)[C@H](NC(=O)[C@@H]2CCCN2C(=O)[C@H](Cc2ccccc2)NC(=O)[C@H](Cc2ccc(O)cc2)NC(=O)CCOCCOCCOCCOCCNC(=O)c2ccc3c(c2)C2(OC3=O)c3ccc(N(C)C)cc3Oc3cc(N(C)C)ccc32)CCSSC[C@@H](C(=O)O)NC(=O)[C@H](Cc2ccccc2)NC1=O` [Compound 12T, Tam-EG(4)-YFP(xQFAFC)] ({X1-PEG4}-YFP[d(hCys)]QFAFC-OH; disulfide 4-9), the half-life (as a rule, the time in which the quantity being followed falls by half) in data set [1] is above 48 h. The “intracellular Tam-fluorescence (peptide uptake)” value in data set [2] is given as “pronounced intracellular fluorescence is visible after 60 min of stimulation”. In addition, the “intracellular accumulation of Tam-fluorescence over time” value in data set [3] is on record as “comparable intracellular accumulation over time”.

Consider `CN(Cc1cnc2nc(N)nc(N)c2n1)c1ccc(C(=O)N[C@@H](CCC(=O)O)C(=O)O)cc1` [MTX, Methotrexate, reference compound], for which the figures for the IC50 (in data set [4]; in data set [5]; in the data set with HMEC-1 cells) were 471 nM, 373 nM and 10000 nM, respectively.
